Results reported in paper PMC10714399, “Open Source Antibiotics: Simple Diarylimidazoles Are Potent against Methicillin-Resistant Staphylococcus aureus” (ACS Infectious Diseases, 2023).
≈ marks a conversion by molar mass, not a printed value. Where “and” joins values, the source holds several entries; their conditions need not be identical. Equal values may be shown once. Read-outs that look alike come from different tables or passages of the source.

Key:
[1] = tested on: S. aureus ATCC 25923 (methicillin-susceptible); experiment: In vitro antibacterial activity, MIC (UCL), MSSA; format: cell-based, Staphylococcus aureus; settings: for MIC: Staphylococcus aureus
How it was run: (§1)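 Broth microdilution in isosensitest broth; inoculum from overnight tryptone soya agar culture adjusted to A600 0.1 (~1 × 10^8 CFU/mL) then diluted 1:100. Compounds tested as 2-fold series, 32 to 0.03 μg/mL, DMSO at most 2%; vancomycin as quality control.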

[2] = tested on: Staphylococcus aureus NCTC 13373 (mecA-positive; methicillin-resistant); experiment: In vitro antibacterial activity, MIC (UCL School of Pharmacy assay), MRSA; format: cell-based; settings: for MIC: Staphylococcus aureus
How it was run: as §1

[3] = tested on: PMM (primary mouse macrophages); experiment: Toxicity against PMM; format: cell-based
Procedure: (§2) ADME and toxicity for compounds were measured according to procedures outlined in the manuscript submitted in parallel to this one;2 other procedures were used for those compounds analysed by Monash University (in vitro ADME) or UCL (toxicity), both described in the main

[4] = tested on: MRC-5SV2 (human lung fibroblast cell line); experiment: Toxicity against MRC-5SV2; format: cell-based
Procedure: as §2

[5] = tested on: Enterococcus faecalis ATCC 51299 (vanA-positive; vancomycin-resistant); experiment: In vitro antibacterial activity, MIC (UCL), VRE; format: cell-based; settings: for MIC: read-out: VRE MIC
Procedure: Staphylococcus aureus NCTC 13373 (mecA-positive; methicillin-resistant, NCTC 13373) was supplied by the National Collection of Type Cultures (NCTC), Public Health England, United Kingdom. Other organisms, S. aureus ATCC 25923 (methicillin-susceptible) and Enterococcus faecalis ATCC 51299 (vanA-positive; vancomycin-resistant), were obtained from the American Type Culture Collection (ATCC) via LGC Standards, UK. A suspension of each organism was prepared from an overnight plate culture (tryptone soya agar) in phosphate-buffered saline (PBS) and adjusted to an absorbance reading at 600 nm of 0.1, which is approximately equivalent to 1 × 10^8 colony-forming units (CFU) per mL. The cultures were further diluted 1:100 in isosensitest broth (Oxoid, United Kingdom) before 100 μL was used to inoculate each well of a 96-well plate that contained diluted samples of the OSA series. Compounds were evaluated over a 2-fold dilution range from 32 to 0.03 μg/mL. Stocks of the samples were prepared in 100% DMSO at […] before being diluted in isosenstitest broth. The highest concentration of DMSO present was 2%, which has been previously shown not to inhibit the growth of the microorganisms (data not shown). […] Vancomycin was used as a quality control compound.

[6] = UCL assay, read-out: MSSA MIC (ug/mL) (UCL)
[7] = UCL assay, read-out: MRSA MIC (ug/mL) (UCL)

Row | Structure (SMILES) | MRSA MIC [2] | MIC [1, 6] [µg/mL] | MIC [2, 7] [µg/mL] | PMM TC50 [3] [µg/mL] | MRC5 TC50 [4] [µg/mL] | PMM TC50 ([3]; PMM) [µM] | MRC5 TC50 ([4]; MRC5 cells) [µM] | other results
1 | Cc1ccc2nc(-c3ccccc3)c(CNc3cccc(C(F)(F)F)c3)n2c1 [OSA_001028] | – | > 32 | > 32 | – | – | 64 | 64 | –
2 | Clc1ccc(-c2c(-c3ccccn3)nc3n2CCC3)cc1 [compound 875] | – | – | – | 2.4 | 1.6 | – | – | MIC ([2]; read-out: MRSA MIC): 4 µg/mL (≈ 13.5 µM); MIC [5]: 16 µg/mL (≈ 54.1 µM)
3 | Fc1cccc(-c2c(-c3ccccn3)nc3n2CCC3)c1 [compound 872] | 32 µg/mL | – | – | 15.3 | 2.0 | – | – | MIC ([2]; read-out: MRSA MIC): > 32 µg/mL; MIC [5]: > 32 µg/mL
4 | Cc1ccn2cc(-c3ccccn3)nc2c1 [OSA_001030] | – | > 32 | > 32 | – | – | 64 | 22.11 | –
5 | CCCCN(Cc1c(-c2ccccn2)nc2cc(C)ccn12)c1ccc(F)cc1 [OSA_001032] | – | 32 (≈ 82.4 µM) | 32 (≈ 82.4 µM) | – | – | 32 | 16 | –
6 | FC(F)(F)c1ccc(-c2c(-c3ccccn3)nc3n2CCC3)cc1 [OSA_001052] | – | 16 (≈ 48.6 µM) | 16 (≈ 48.6 µM) | – | – | 32 | 8.17 | –
7 | c1ccc(-c2nc3n(c2-c2ccncc2)CCC3)nc1 [OSA_001072] | – | > 32 | > 32 | – | – | 64 | 64 | –
8 | Cc1ccn2c(CN(CC(C)C)c3cccc(C(F)(F)F)c3)c(-c3ccccn3)nc2c1 [OSA_001033] | – | > 32 | > 32 | – | – | 32 | 9.78 | –
9 | N#Cc1ccc(-c2c(-c3ccccn3)nc3n2CCC3)cn1 [OSA_001075] | – | > 32 | > 32 | – | – | 64 | 64 | –
10 | COc1ccn2c(-c3ccccc3)c(-c3ccccn3)nc2c1 [compound 860] | 8 µg/mL | – | – | 2.4 | 1.2 | – | – | VRE MIC [5]: 32 µg/mL

Further lines, with some results ahead:

Row | MRSA MIC [2] | MIC [1, 6] [µg/mL] | MIC [2, 7] [µg/mL] | Structure (SMILES) | PMM TC50 [3] [µg/mL] | MRC5 TC50 [4] [µg/mL] | PMM TC50 ([3]; PMM) [µM] | MRC5 TC50 ([4]; MRC5 cells) [µM] | other results
11 | > 32 µg/mL and 32 µg/mL | – | – | Fc1ccc(-c2c(-c3ccccn3)nc3n2CCC3)cc1 [compound 1053] | 8.9 | 2.1 | – | – | MSSA MIC [1]: > 32 µg/mL
12 | > 32 µg/mL and 32 µg/mL | – | – | N#Cc1ccc(-c2c(-c3ccccn3)nc3n2CCC3)cc1C(F)(F)F [compound 1077] | 22.7 | 22.7 | – | – | MSSA MIC [1]: > 32 µg/mL
13 | 32 µg/mL | – | – | CC(=O)N(c1ccc(F)cc1)c1c(-c2ccccn2)nc2ccccn12 [compound 1021] | 22.2 | 22.2 | – | – | MIC ([1]; read-out: MSSA MIC): > 32 µg/mL; MIC ([2]; read-out: MRSA MIC): > 32 µg/mL
14 | > 32 µg/mL and 32 µg/mL | – | – | Cc1ccn2c(CN(CC(C)C)c3cccc(C(F)(F)F)c3)c(-c3ccccn3)nc2c1 [compound 1033] | 14.0 | 4.3 | – | – | MSSA MIC [1]: > 32 µg/mL
15 | 32 µg/mL | – | – | Fc1ccc(NCc2c(-c3ccccn3)nc3ccccn23)cc1 [compound 1019] | 20.4 | 20.4 | – | – | MIC ([1]; read-out: MSSA MIC): > 32 µg/mL; MIC ([2]; read-out: MRSA MIC): > 32 µg/mL
16 | > 32 µg/mL and 32 µg/mL | – | – | Cc1ccc2nc(-c3ccccc3)c(CNc3ccc(F)cc3)n2c1 [compound 1027] | 21.2 | 21.2 | – | – | MSSA MIC [1]: > 32 µg/mL
